Laboratory results as given in patent US10125134B2 (Mirati Therapeutics, Inc., priority 2016, dated 2018).
Read-outs that look alike come from different tables or passages of the source.

What was measured:
[1] = target: KRas G12C (Homo sapiens, UniProt P01116, C118S/C51S/C80L/G12C); experiment: KRas G12C Modification Assay (LCMS detection of covalent adduct); assay type: binding; conditions: normalized percent of control; tested at 5 μM concentration for 3 hours
Outline: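 Cys-light KRas G12C mutant protein incubated with compound in K-Ras assay buffer, reactions quenched at set time points with 25 mM acetic acid and analysed by intact-protein LC/MS on a C-3 column. Deconvoluted mass heights expressed as percent of control (POC) relative to compound-free protein.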

[2] = test system: NCI-H358 cells (express KRas G12C), Phospho-ERK; experiment: Cellular inhibition of KRas G12C: Phospho-ERK in NCI-H358 cells; assay type: cell-based; conditions: pERK(Thr202/Tyr204) normalized with GAPDH, NCI-H358 cells, 3 hours, read-out: IC50
Outline: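 IC50 derived by 4-parameter fit of GAPDH-normalized pERK(Thr202/Tyr204) signal, as percent of DMSO control. Signal came from in-cell immunodetection with infrared secondaries after 3 h compound exposure of KRas G12C NCI-H358 cells at 0.5% DMSO.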

| POC [1] | Compound | IC50 ([2]; Homo sapiens, NCI-H358, 3 h) [nM] | IC50 ([2]; Homo sapiens) [nM] | IC50 [2] [nM] |
| --- | --- | --- | --- | --- |
| C (“C”>50% POC) | C=CC(=O)N1CCN(c2nc(OC[C@@H]3CCCN3C)nc3c2CCN(c2ccccc2C(F)F)C3)CC1CC#N (stereo partly drawn) [Example 447, 2-(1-Acryloyl-4-(7-(2-(difluoromethyl)phenyl)-2-(((S)-1-methylpyrrolidin-2-yl)methoxy)-5,6,7,8-tetrahydropyrido[3,4-d]pyrimidin-4-yl)piperazin-2-yl)acetonitrile] | 0.1 to 1000 |  |  |
| C (“C”>50% POC) | C=CC(=O)N1CCN(c2nc(OC[C@H]3CN(C)CCO3)nc3c2CCN(c2cccc4ccccc24)C3)C[C@@H]1CC#N [Example 448, 2-((S)-1-Acryloyl-4-(2-(((R)-4-methylmorpholin-2-yl)methoxy)-7-(naphthalen-1-yl)-5,6,7,8-tetrahydropyrido[3,4-d]pyrimidin-4-yl)piperazin-2-yl)acetonitrile] | 0.1 to 1000 |  |  |
| C (“C”>50% POC) | C=CC(=O)N1CCN(c2nc(OC[C@H]3CN(C)C(C)(C)CO3)nc3c2CCN(c2cccc4ccccc24)C3)C[C@@H]1CC#N [Example 450, 2-((S)-1-Acryloyl-4-(7-(naphthalen-1-yl)-2-(((R)-4,5,5-trimethylmorpholin-2-yl)methoxy)-5,6,7,8-tetrahydropyrido[3,4-d]pyrimidin-4-yl)piperazin-2-yl)acetonitrile] | 0.1 to 1000 |  |  |
| C (“C”>50% POC) | C=CC(=O)N1CCN(c2nc(OC[C@@H]3CCCN3C)nc3c2CCN(c2c(C)c(C)cc4[nH]ncc24)C3)CC1 [Example 451, 1-[4-[7-(5,6-dimethyl-1H-indazol-4-yl)-2-[[(2S)-1-methylpyrrolidin-2-yl]methoxy]-6,8-dihydro-5H-pyrido[3,4-d]pyrimidin-4-yl]piperazin-1-yl]prop-2-en-1-one] | 0.1 to 1000 |  |  |
| C (“C”>50% POC) | C=CC(=O)N1CCN(c2nc(OCCN3CCC(F)(F)CC3)nc3c2CCN(c2cccc4cccc(Cl)c24)C3)C[C@@H]1CC#N [Example 452, 2-[(2S)-4-[7-(8-chloro-1-naphthyl)-2-[2-(4,4-difluoro-1-piperidyl)ethoxy]-6,8-dihydro-5H-pyrido[3,4-d]pyrimidin-4-yl]-1-prop-2-enoyl-piperazin-2-yl]acetonitrile] | 0.1 to 1000 |  |  |
| C (“C”>50% POC) | C=CC(=O)N1CCN(c2nc(OCCN3CCCC(F)(F)C3)nc3c2CCN(c2cccc4cccc(Cl)c24)C3)C[C@@H]1CC#N [Example 453, 2-[(2S)-4-[7-(8-chloro-1-naphthyl)-2-[2-(3,3-difluoro-1-piperidyl)ethoxy]-6,8-dihydro-5H-pyrido[3,4-d]pyrimidin-4-yl]-1-prop-2-enoyl-piperazin-2-yl]acetonitrile] | 0.1 to 1000 |  |  |
| C (“C”>50% POC) | C=CC(=O)N1CCN(c2nc(OC[C@@H]3CCCN3C)nc3c2CCN(c2c(C)c(C)cc4[nH]ccc24)C3)CC1 [Example 454, 1-[4-[7-(5,6-dimethyl-1H-indol-4-yl)-2-[[(2S)-1-methylpyrrolidin-2-yl]methoxy]-6,8-dihydro-5H-pyrido[3,4-d]pyrimidin-4-yl]piperazin-1-yl]prop-2-en-1-one] | 0.1 to 1000 |  |  |
| C (“C”>50% POC) | CC#CC(=O)N1CCN(c2nc(OC[C@@H]3CCCN3C)nc3c2CCN(c2cccc4cccc(C)c24)C3)C[C@@H]1CC#N [Example 455, 2-((S)-1-(but-2-ynoyl)-4-(7-(8-methylnaphthalen-1-yl)-2-(((S)-1-methylpyrrolidin-2-yl)methoxy)-5,6,7,8-tetrahydropyrido[3,4-d]pyrimidin-4-yl)piperazin-2-yl)acetonitrile] | 0.1 to 1000 |  |  |
| C (“C”>50% POC) | Cc1cccc2cccc(N3CCc4c(nc(OC[C@@H]5CCCN5C)nc4N4CCN(C(=O)/C=C/CN(C)C)[C@@H](CC#N)C4)C3)c12 [Example 456, 2-((S)-1-((E)-4-(dimethylamino)but-2-enoyl)-4-(7-(8-methylnaphthalen-1-yl)-2-(((S)-1-methylpyrrolidin-2-yl)methoxy)-5,6,7,8-tetrahydropyrido[3,4-d]pyrimidin-4-yl)piperazin-2-yl)acetonitrile] | 0.1 to 1000 |  |  |
| C (“C”>50% POC) | Cc1cccc2cccc(N3CCc4c(nc(OC[C@@H]5CCCN5C)nc4N4CCN(C(=O)/C=C/CN5CCOCC5)[C@@H](CC#N)C4)C3)c12 [Example 457, 2-[(2S)-4-[7-(8-methyl-1-naphthyl)-2-[[(2S)-1-methylpyrrolidin-2-yl]methoxy]-6,8-dihydro-5H-pyrido[3,4-d]pyrimidin-4-yl]-1-[(E)-4-morpholinobut-2-enoyl]piperazin-2-yl]acetonitrile] | 0.1 to 1000 |  |  |
| C (“C”>50% POC) | C=CC(=O)N1CCN(c2nc(OC[C@@H]3CCCN3C)nc3c2CCN(c2cccc4cccc(C)c24)C3)C[C@H]1CC#N [Example 458, 2-[(2R)-4-[7-(8-methyl-1-naphthyl)-2-[[(2S)-1-methylpyrrolidin-2-yl]methoxy]-6,8-dihydro-5H-pyrido[3,4-d]pyrimidin-4-yl]-1-prop-2-enoyl-piperazin-2-yl]acetonitrile] | 0.1 to 1000 |  |  |

More lines, now with the values behind:

| Compound | POC [1] | IC50 ([2]; Homo sapiens, NCI-H358, 3 h) [nM] | IC50 ([2]; Homo sapiens) [nM] | IC50 [2] [nM] |
| --- | --- | --- | --- | --- |
| C=CC(=O)N1CCN(c2nc(OC[C@@H]3C[C@@H](F)CN3C)nc3c2CCN(c2cccc(C)c2C)C3)C[C@@H]1CC#N [Example 435, 2-((S)-1-acryloyl-4-(7-(2,3-dimethylphenyl)-2-(((2S,4R)-4-fluoro-1-methylpyrrolidin-2-yl)methoxy)-5,6,7,8-tetrahydropyrido[3,4-d]pyrimidin-4-yl)piperazin-2-yl)acetonitrile] | C (“C”>50% POC) | 0.1 to 1000 |  |  |
| Cc1cccc(N2CCc3c(nc(OC[C@@H]4C[C@@H](F)CN4C)nc3N3CCN(C(=O)/C=C/CN(C)C)[C@@H](CC#N)C3)C2)c1C [Example 436, 2-((S)-1-((E)-4-(dimethylamino)but-2-enoyl)-4-(7-(2,3-dimethylphenyl)-2-(((2S,4R)-4-fluoro-1-methylpyrrolidin-2-yl)methoxy)-5,6,7,8-tetrahydropyrido[3,4-d]pyrimidin-4-yl)piperazin-2-yl)acetonitrile] | C (“C”>50% POC) |  | 0.1 to 1000 |  |
| C=CC(=O)N1CCN(c2nc(OC[C@@H]3CCCN3C)nc3c2CCN(c2cccc4ccccc24)C3)C(CC#N)C1 (stereo partly drawn) [Example 437, 2-(4-acryloyl-1-(2-(((S)-1-methylpyrrolidin-2-yl)methoxy)-7-(naphthalen-1-yl)-5,6,7,8-tetrahydropyrido[3,4-d]pyrimidin-4-yl)piperazin-2-yl)acetonitrile] | C (“C”>50% POC) | > 1000 |  |  |
| C=CC(=O)N1CCN(c2nc(OC[C@@H]3[C@H](F)CCN3C)nc3c2CCN(c2cccc4ccccc24)C3)C[C@@H]1CC#N [Example 438, 2-((S)-1-acryloyl-4-(2-(((2R,3R)-3-fluoro-1-methylpyrrolidin-2-yl)methoxy)-7-(naphthalen-1-yl)-5,6,7,8-tetrahydropyrido[3,4-d]pyrimidin-4-yl)piperazin-2-yl)acetonitrile] | C (“C”>50% POC) | 0.1 to 1000 |  |  |
| C=CC(=O)N1CCN(c2nc(OC[C@@H]3CCCN3C)nc3c2CCN(c2cccc4cccn24)C3)C[C@@H]1CC#N [Example 440, 2-((S)-1-acryloyl-4-(7-(indolizin-5-yl)-2-(((S)-1-methylpyrrolidin-2-yl)methoxy)-5,6,7,8-tetrahydropyrido[3,4-d]pyrimidin-4-yl)piperazin-2-yl)acetonitrile] | C (“C”>50% POC) | 0.1 to 1000 |  |  |
| C=CC(=O)N1CCN(c2nc(OC[C@@H]3CN(C)CCO3)nc3c2CCN(c2cccc4ccccc24)C3)CC1CC#N (stereo partly drawn) [Example 442, 2-(1-Acryloyl-4-(2-(((S)-4-methylmorpholin-2-yl)methoxy)-7-(naphthalen-1-yl)-5,6,7,8-tetrahydropyrido[3,4-d]pyrimidin-4-yl)piperazin-2-yl)acetonitrile] | C (“C”>50% POC) |  |  | 0.1 to 1000 |
| C=CC(=O)N1CCN(c2nc(OC[C@@H]3COCCN3C)nc3c2CCN(c2cccc4ccccc24)C3)CC1CC#N (stereo partly drawn) [Example 443, 2-(1-Acryloyl-4-(2-(((S)-4-methylmorpholin-3-yl)methoxy)-7-(naphthalen-1-yl)-5,6,7,8-tetrahydropyrido[3,4-d]pyrimidin-4-yl)piperazin-2-yl)acetonitrile] | C (“C”>50% POC) |  |  | 0.1 to 1000 |
| C=CC(=O)N1CCN(c2nc(OC[C@H]3COCCN3C)nc3c2CCN(c2cccc4ccccc24)C3)CC1CC#N (stereo partly drawn) [Example 444, 2-(1-Acryloyl-4-(2-(((R)-4-methylmorpholin-3-yl)methoxy)-7-(naphthalen-1-yl)-5,6,7,8-tetrahydropyrido[3,4-d]pyrimidin-4-yl)piperazin-2-yl)acetonitrile] | C (“C”>50% POC) |  |  | > 1000 |
| C=CC(=O)N1CCN(c2nc(OC[C@@H]3CC(F)(F)CN3C)nc3c2CCN(c2cccc4ccccc24)C3)C[C@@H]1CC#N [Example 445, 2-((S)-1-Acryloyl-4-(2-(((S)-4,4-difluoro-1-methylpyrrolidin-2-yl)methoxy)-7-(naphthalen-1-yl)-5,6,7,8-tetrahydropyrido[3,4-d]pyrimidin-4-yl)piperazin-2-yl)acetonitrile] | C (“C”>50% POC) | 0.1 to 1000 |  |  |
| C=CC(=O)N1CCN(c2nc(OC[C@H]3CN(C)C4(CC4)CO3)nc3c2CCN(c2cccc4ccccc24)C3)C[C@@H]1CC#N [Example 446, 2-((S)-1-Acryloyl-4-(2-(((R)-4-methyl-7-oxa-4-azaspiro[2.5]octan-6-yl)methoxy)-7-(naphthalen-1-yl)-5,6,7,8-tetrahydropyrido[3,4-d]pyrimidin-4-yl)piperazin-2-yl)acetonitrile] | C (“C”>50% POC) | 0.1 to 1000 |  |  |
